Several values for one entry are separate records, joined by “and”; a condition that tells them apart may be missing. Identical values can stand only once.
Assays:
[1] = biological target: T1, mGlu1 A59H/A265H mutant (Rattus norvegicus, UniProt P23385, A265H/A59H); assay: Fura-2 Ca2+ imaging in HEK293 cells expressing mGlu1 A59H/A265H; type: cell-based; conditions: Fig.1e
T1 construct: expressed in transfected cells; host or cells: HEK293

[2] = test system: HEK293 cells, vector control; assay: Fura-2 Ca2+ imaging in HEK293 cells transfected with control vector (Vec); type: cell-based; conditions: Fig.1e; as to Ca2+ response of individual cells (source data Suppl Fig1), Vec: test concentration or dose not given here
Source text: Supplement 41467_2022_30828_MOESM6_ESM.zip/Ojima et al_source data_Main Figure.xlsx, sheet "Fig.1e" | column: Vec

[3] = test system: mGlu1 construct not given; assay: Fura-2 Ca2+ imaging in HEK293 cells, source data Suppl Fig1, middle group (c9-c17); construct not given; type: cell-based, rat; conditions: single-cell values, cells #15-#20; middle group of third block
Source text: (§1) Supplement 41467_2022_30828_MOESM6_ESM.zip/Ojima et al_source data_Suppl Fig.xlsx, sheet "Suppl Fig1" | column: Glu; NiCl2; CuCl2; ZnCl2; CdCl2; Na2PdCl2; Pd(bpy)

[4] = test system: mGlu1 construct not given; assay: Fura-2 Ca2+ imaging in HEK293 cells, source data Suppl Fig1, right group (c18-c26); construct not given; type: cell-based, rat; conditions: single-cell values, cells #15-#20; right group of third block
Source text: as §1

[5] = biological target: T2, WT mGlu1 (Rattus norvegicus, UniProt P23385); type: cell-based; conditions: for Ca2+ response (delta ratio), WT: Fig.1e; for Ca2+ response of individual cells (source data Suppl Fig1), WT: single-cell values #1-#20; as to all read-outs here: test concentration or dose not given here
T2 construct: expressed in transfected cells; host or cells: HEK293

[6] = biological target: T3, mGlu1 P57H/N264H mutant (Rattus norvegicus, UniProt P23385, N264H/P57H); assay: Fura-2 Ca2+ imaging in HEK293 cells expressing mGlu1 P57H/N264H; type: cell-based; conditions: for Ca2+ response (delta ratio), P57H/N264H: Fig.1e; for Ca2+ response of individual cells (source data Suppl Fig1), P57H/N264H: single-cell values #1-#20
T3 construct: expressed in transfected cells; host or cells: HEK293

[7] = biological target: T4, mGlu1 A59H/N264H mutant (Rattus norvegicus, UniProt P23385, A59H/N264H); assay: Fura-2 Ca2+ imaging in HEK293 cells expressing mGlu1 A59H/N264H; type: cell-based; conditions: for Ca2+ response (delta ratio), A59H/N264H: Fig.1e; for Ca2+ response of individual cells (source data Suppl Fig1), A59H/N264H: single-cell values #1-#20
T4 construct: expressed in transfected cells; host or cells: HEK293

[8] = biological target: T5, mGlu1 A59H/G266H mutant (Rattus norvegicus, UniProt P23385, A59H/G266H); assay: Fura-2 Ca2+ imaging in HEK293 cells expressing mGlu1 A59H/G266H; type: cell-based; conditions: single-cell values; as to Ca2+ response (delta ratio), A59H/G266H: test concentration or dose not given here
T5 construct: expressed in transfected cells; host or cells: HEK293

[9] = biological target: T5, mGlu1 A59H/G266H mutant; assay: as above; type: cell-based; conditions: Fig.1e
[10] = biological target: T6, mGlu1 P58H/N264H mutant (Rattus norvegicus, UniProt P23385, N264H/P58H); assay: Fura-2 Ca2+ imaging in HEK293 cells expressing mGlu1 P58H/N264H; type: cell-based; conditions: for Ca2+ response (delta ratio), P58H/N264H: Fig.1e; for Ca2+ response of individual cells (source data Suppl Fig1), P58H/N264H: single-cell values #1-#20
T6 construct: expressed in transfected cells; host or cells: HEK293

[11] = biological target: T1, mGlu1 A59H/A265H mutant; assay: Fura-2 Ca2+ imaging in HEK293 cells expressing mGlu1 A59H/A265H; type: cell-based; conditions: single-cell values
[12] = test system: mGlu1 construct not given; assay: Fura-2 Ca2+ imaging in HEK293 cells, source data Suppl Fig1, left group (c0-c8); construct not given; type: cell-based, rat; conditions: single-cell values, cells #15-#20; left group of third block
Source text: as §1

[13] = test system: HEK293 cells, vector control; assay: Fura-2 Ca2+ imaging in HEK293 cells transfected with control vector (Vec); type: cell-based; conditions: single-cell values #1-#20; as to Ca2+ response of individual cells (source data Suppl Fig1), Vec: test concentration or dose not given here
[14] = biological target: T7, mGlu1 E60H/N264H mutant (Rattus norvegicus, UniProt P23385, E60H/N264H); assay: Fura-2 Ca2+ imaging in HEK293 cells expressing mGlu1 E60H/N264H; type: cell-based; conditions: for Ca2+ response (delta ratio), E60H/N264H: Fig.1e; for Ca2+ response of individual cells (source data Suppl Fig1), E60H/N264H: single-cell values #1-#20
T7 construct: expressed in transfected cells; host or cells: HEK293

[15] = biological target: T8, mGlu1 K61H/N264H mutant (Rattus norvegicus, UniProt P23385, K61H/N264H); assay: Fura-2 Ca2+ imaging in HEK293 cells expressing mGlu1 K61H/N264H; type: cell-based; conditions: for Ca2+ response (delta ratio), K61H/N264H: Fig.1e; for Ca2+ response of individual cells (source data Suppl Fig1), K61H/N264H: single-cell values
T8 construct: expressed in transfected cells; host or cells: HEK293
T8 sequence (P23385 19-1199 K61H/N264H): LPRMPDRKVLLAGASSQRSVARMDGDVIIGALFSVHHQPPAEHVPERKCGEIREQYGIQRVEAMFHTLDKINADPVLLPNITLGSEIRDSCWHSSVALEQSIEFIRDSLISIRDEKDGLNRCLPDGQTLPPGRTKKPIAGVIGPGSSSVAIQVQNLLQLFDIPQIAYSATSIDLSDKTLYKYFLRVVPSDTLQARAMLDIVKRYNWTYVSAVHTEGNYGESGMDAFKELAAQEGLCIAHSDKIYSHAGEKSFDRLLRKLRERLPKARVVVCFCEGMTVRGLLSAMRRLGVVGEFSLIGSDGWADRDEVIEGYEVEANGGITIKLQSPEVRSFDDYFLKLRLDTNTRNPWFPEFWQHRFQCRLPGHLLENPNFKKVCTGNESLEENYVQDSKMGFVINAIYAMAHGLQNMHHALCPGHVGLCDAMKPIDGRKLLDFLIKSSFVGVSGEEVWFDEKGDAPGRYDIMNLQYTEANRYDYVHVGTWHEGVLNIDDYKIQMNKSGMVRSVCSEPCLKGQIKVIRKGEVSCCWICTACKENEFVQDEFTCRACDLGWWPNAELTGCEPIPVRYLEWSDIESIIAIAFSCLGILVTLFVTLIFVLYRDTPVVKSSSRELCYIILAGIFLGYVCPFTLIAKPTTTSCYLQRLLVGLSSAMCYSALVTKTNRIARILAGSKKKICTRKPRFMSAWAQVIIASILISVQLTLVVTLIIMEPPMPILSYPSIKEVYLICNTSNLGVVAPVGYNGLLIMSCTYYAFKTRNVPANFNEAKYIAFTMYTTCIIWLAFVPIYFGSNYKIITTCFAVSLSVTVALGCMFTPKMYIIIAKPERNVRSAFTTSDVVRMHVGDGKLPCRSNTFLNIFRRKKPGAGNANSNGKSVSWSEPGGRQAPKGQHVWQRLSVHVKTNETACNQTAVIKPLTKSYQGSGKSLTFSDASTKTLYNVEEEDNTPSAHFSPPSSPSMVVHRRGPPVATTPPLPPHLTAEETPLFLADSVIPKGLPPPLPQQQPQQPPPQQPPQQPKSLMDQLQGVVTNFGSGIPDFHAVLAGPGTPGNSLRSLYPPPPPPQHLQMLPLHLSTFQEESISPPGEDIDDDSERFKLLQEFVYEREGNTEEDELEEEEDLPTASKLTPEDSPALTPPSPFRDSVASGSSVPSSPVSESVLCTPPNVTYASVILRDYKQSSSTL

T6 sequence (P23385 19-1199 P58H/N264H): as the sequence (P23385 19-1199 K61H/N264H) above, with P40H, H43K counted along it
T1 sequence (P23385 19-1199 A59H/A265H): as the sequence (P23385 19-1199 K61H/N264H) above, with A41H, H43K, H246N, A247H counted along it
T5 sequence (P23385 19-1199 A59H/G266H): as the sequence (P23385 19-1199 K61H/N264H) above, with A41H, H43K, H246N, G248H counted along it
T2 sequence (P23385 19-1199): as the sequence (P23385 19-1199 K61H/N264H) above, with H43K, H246N counted along it
T7 sequence (P23385 19-1199 E60H/N264H): as the sequence (P23385 19-1199 K61H/N264H) above, with E42H, H43K counted along it
T3 sequence (P23385 19-1199 P57H/N264H): as the sequence (P23385 19-1199 K61H/N264H) above, with P39H, H43K counted along it
T4 sequence (P23385 19-1199 A59H/N264H): as the sequence (P23385 19-1199 K61H/N264H) above, with A41H, H43K counted along it

SMILES	Ca2+ response (delta ratio), A59H/A265H [1]	Ca2+ response (delta ratio), Vec [2]	Ca2+ response of individual cells (source data, sheet Suppl Fig1) [3]	Ca2+ response of individual cells (source data, sheet Suppl Fig1) [4]	Ca2+ response (delta ratio), WT [5]	Ca2+ response of individual cells (source data Suppl Fig1), WT [5]	Ca2+ response (delta ratio), P57H/N264H [6]	Ca2+ response of individual cells (source data Suppl Fig1), P57H/N264H [6]	Ca2+ response (delta ratio), A59H/N264H [7]	Ca2+ response of individual cells (source data Suppl Fig1), A59H/N264H [7]	Ca2+ response of individual cells (source data Suppl Fig1), A59H/G266H [8]	Ca2+ response (delta ratio), A59H/G266H [9]	Ca2+ response (delta ratio), P58H/N264H [10]	Ca2+ response of individual cells (source data Suppl Fig1), P58H/N264H [10]	Ca2+ response of individual cells (source data Suppl Fig1), A59H/A265H [11]	Ca2+ response of individual cells (source data, sheet Suppl Fig1) [12]	Ca2+ response of individual cells (source data Suppl Fig1), Vec [13]	Ca2+ response (delta ratio), E60H/N264H [14]	Ca2+ response of individual cells (source data Suppl Fig1), E60H/N264H [14]	Ca2+ response (delta ratio), K61H/N264H [15]	also measured
[Cl][Cu][Cl] [CuCl2]	-0.0005365	0.01757	-0.002923 and 0.002562 and 0.004815 and -0.0036 and -0.004154 and 0.002577	-0.007831 and 0.008223 and -0.0022 and 0.006269 and -0.002515 and 0.01038	0.02902	0.02565 and 0.01115 and 0.003838 and 0.01123 and 0.01654 and 0.01648 and -0.004477 and -0.001046 and -0.0009077 and 0.04058 and 0.008923 and 0.1117 and -0.006138 and 0.001246 and 0.02892 and 0.05005 and 0.02387 and -0.0088 and -0.01073 and 0.2624	0.007634	-0.009615 and 0.002477 and 0.01378 and 0.02434 and 0.0008462 and 0.008 and -0.0007 and 0.008062 and 0.01831 and -0.0008538 and 0.01338 and 0.01485 and 0.01 and 0.001692 and -0.005731 and 0.03126 and 0.0103 and 0.01328 and -0.004977 and 0.003977	-0.008971	0.01442 and -0.1061 and -0.004715 and -0.004738 and -0.008577 and -0.007731 and 0.0007462 and -0.01637 and -0.006738 and -0.004831 and 0.04273 and 0.05223 and 0.05741 and -0.09539 and -0.006538 and 0.01191 and -0.02261 and -0.005077 and -0.03944 and -0.03002	-0.005931 and -0.06262 and 0.006338 and -0.05078 and -0.003546 and -0.0521 and 0.002277 and -0.02358 and 0.04298 and -0.0436 and -0.1049 and -0.001831 and 0.0158 and -0.01046	-0.01398	-0.01421	-0.02928 and 0.02135 and -0.1614 and -0.04317 and -0.03766 and -0.009985 and 0.06338 and -0.01091 and -0.1246 and -0.02604 and 0.008315 and -0.1403 and -0.007362 and 0.04025 and -0.04095 and 0.177 and 0.01632 and 0.001515 and 0.03036 and -0.0111	-0.01552 and 0.009746 and -0.01265 and -0.0065 and 0.009708 and -0.002746 and 0.009762 and -0.01072 and 0.004462 and -0.01463 and 0.01478 and 0.0025 and 0.01092 and -0.009138	0.006485 and -0.01132 and -0.01643 and -0.02029 and -0.01602 and -0.0035	0.02461 and -0.003092 and 0.01753 and 0.02088 and 0.01475 and -0.003385 and 0.07142 and 0.01504 and 0.02807 and 0.04525 and 0.001746 and 0.01458 and 0.01948 and -0.006131 and 0.04009 and 0.01931 and 0.02889 and 0.01229 and -0.005492 and -0.004385	-0.0006131	0.001946 and 0.001985 and -0.004585 and 0.05012 and -0.01047 and -0.007438 and -0.008146 and -0.01882 and 0.02938 and -0.02675 and -0.0009231 and -0.009708 and 0.06405 and 0.006685 and -0.01392 and -0.007992 and -0.007615 and -0.01812 and -0.013 and -0.01895	-0.008802	Ca2+ response of individual cells (source data Suppl Fig1), K61H/N264H [15]: -0.02337 and 0.01083 and -0.01322 and 0.006669 and -0.02188 and -0.01248 and -0.01492 and -0.01697 and -0.01238 and 0.05283 and -0.01893 and -0.01583 and -0.01651 and -0.01879
[Cl][Ni][Cl] [NiCl2]	0.01054	-0.006595	0.03642 and 0.005192 and 0.02775 and -0.01323 and -0.002362 and 0.009469	0.03285 and -0.01932 and -0.04406 and 0.003838 and -0.02115 and 0.02962	0.03319	-0.005477 and -0.01458 and 0.001892 and -0.01835 and 0.1195 and 0.01671 and 0.05379 and 0.4457 and 0.004608 and -0.002423 and 0.004238 and 0.01116 and 0.1174 and -0.002515 and -0.001223 and -0.001015 and -0.0129 and -0.004708 and 0.01682 and -0.06482	0.01834	-0.01177 and -0.0082 and 0.005215 and 0.04513 and 0.01995 and 0.003931 and -0.01436 and 0.02328 and -0.02887 and -0.004769 and -0.02686 and -0.008069 and 0.003369 and 0.01493 and -0.02254 and -0.001223 and 0.3415 and -0.007623 and 0.04519 and -0.0014	0.05683	0.3729 and -0.001931 and -0.001046 and 0.01178 and 0.01916 and -0.01828 and -0.02652 and 0.02399 and 0.0008077 and 0.2216 and -0.004754 and -0.01916 and -0.02225 and 0.2474 and 0.3157 and 0.001138 and -0.0037 and -0.007646 and -0.0005385 and 0.0279	-0.007338 and -0.001015 and -0.03149 and 0.03385 and 0.01174 and 0.008792 and -0.03335 and -0.003362 and 0.01265 and 0.02216 and 0.003731 and -0.008569 and 0.01177 and -0.002115	-3.81E-05	0.05353	0.03009 and 0.04043 and -0.04005 and 0.07079 and 0.04304 and 0.04053 and 0.04913 and 0.06845 and 0.2599 and -0.02289 and 0.03599 and 0.03797 and 0.05281 and 0.1306 and 0.05504 and 0.04257 and 0.06472 and 0.07143 and 0.03615 and 0.003946	-0.0004462 and -0.005215 and 0.006554 and -0.007815 and 0.01005 and -0.006508 and -0.02278 and 0.001031 and 0.01621 and 0.004377 and -0.02859 and 0.008423 and 0.09357 and 0.07873	-0.01619 and -0.01292 and 0.01722 and -0.04921 and -0.009638 and -0.02348	-0.01071 and 0.01858 and -0.01644 and -0.01578 and -0.0028 and -0.01812 and -0.01767 and -0.01609 and -0.0009 and -0.0156 and -0.02858 and -0.009415 and -0.001254 and -0.01445 and -0.004377 and -0.001977 and -0.0008692 and 0.006415 and 0.01396 and 0.004169	-0.01792	-0.0467 and -0.05411 and -0.02817 and -0.02148 and 0.004623 and 0.0091 and -0.02117 and -0.04309 and -0.01538 and -0.003069 and -0.02522 and -0.003569 and 0.01539 and -0.02995 and -0.01439 and -0.004777 and -0.04676 and -0.0003 and -0.01138	-0.01365	Ca2+ response of individual cells (source data Suppl Fig1), K61H/N264H [15]: -0.03782 and -0.01632 and -0.02464 and 0.009846 and -0.01781 and 0.02198 and -0.0009692 and 0.02142 and -0.009608 and -0.02934 and -0.05039 and -0.01796 and -0.007623 and -0.01945

Source: PMC9203742 (Nature Communications, 2022)
